What follows are molecules tested on mice (assay: Neuropharmacological assay (SmartCube), behavioral signature of compound-treated mice). Details: i.p. 15 min before behavioral test, most efficacious dose(s) of 3 doses.
Format: in vivo
How it was run: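 Read-out is an automated video-based behavioral signature, scored as per-class probabilities (e.g., anxiolytic, antidepressant) against reference compounds. Dosing was i.p. at three doses, 15 min pre-test, in NMP, polyethylene glycol and propylene glycol. Values shown are from the most efficacious dose(s).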

Row | SMILES | AD: ADHD (probability that behavioral signature matches class) | AG: analgesic (probability that behavioral signature matches class) | AX: anxiolytic (probability that behavioral signature matches class) | CE: cognitive enhancer (probability that behavioral signature matches class) | DP: anti-depressant (probability that behavioral signature matches class) | HA: hallucinogen (probability that behavioral signature matches class) | MS: mood stabilizer (probability that behavioral signature matches class) | PS: anti-psychotic (probability that behavioral signature matches class) | SD: sedative hypnotic (probability that behavioral signature matches class) | UN: uncharacterized CNS activity (probability that behavioral signature matches class)
1 | Clc1ccc2c(c1)[C@H]([C@@H]1CCCN1)OCC2 [Compound I-29, (S)-2-((R)-7-chloroisochroman-1-yl)pyrrolidine] | + (LOQ ≤ + <5%) | ++ (5% ≤ ++ <25%) | +++ (25% ≤ +++ <50%) | +++ (25% ≤ +++ <50%) | ++ (5% ≤ ++ <25%) | + (LOQ ≤ + <5%) | ++ (5% ≤ ++ <25%) | ++ (5% ≤ ++ <25%) | + (LOQ ≤ + <5%) | ++ (5% ≤ ++ <25%)
2 | Fc1cccc2c1CCO[C@@H]2[C@@H]1CCN1 [Compound I-94, (S)-2-((S)-5-fluoroisochroman-1-yl)azetidine] | + (LOQ ≤ + <5%) | ++ (5% ≤ ++ <25%) | ++ (5% ≤ ++ <25%) | ++ (5% ≤ ++ <25%) | +++ (25% ≤ +++ <50%) | + (LOQ ≤ + <5%) | + (LOQ ≤ + <5%) | +++ (25% ≤ +++ <50%) | + (LOQ ≤ + <5%) | ++ (5% ≤ ++ <25%)
3 | Fc1ccc2c(c1)CCO[C@H]2[C@@H]1CCN1 [Compound I-90, (S)-2-((R)-6-fluoroisochroman-1-yl)azetidine] | + (LOQ ≤ + <5%) | ++ (5% ≤ ++ <25%) | +++ (25% ≤ +++ <50%) | ++ (5% ≤ ++ <25%) | +++ (25% ≤ +++ <50%) | + (LOQ ≤ + <5%) | + (LOQ ≤ + <5%) | ++ (5% ≤ ++ <25%) | ++ (5% ≤ ++ <25%) | ++ (5% ≤ ++ <25%)
4 | Fc1ccc2c(c1)[C@H]([C@@H]1CCCN1)OCC2 [Compound I-5, (2S)-2-((R)-7-fluoroisochroman-1-yl)pyrrolidine] | + (LOQ ≤ + <5%) | ++ (5% ≤ ++ <25%) | ++ (5% ≤ ++ <25%) | ++ (5% ≤ ++ <25%) | ++ (5% ≤ ++ <25%) | + (LOQ ≤ + <5%) | ++ (5% ≤ ++ <25%) | +++ (25% ≤ +++ <50%) | + (LOQ ≤ + <5%) | +++ (25% ≤ +++ <50%)
5 | Fc1cccc2c1[C@H]([C@@H]1CCCN1)OCC2 [Compound I-1, (S)-2-((R)-8-fluoroisochroman-1-yl)pyrrolidine] | + (LOQ ≤ + <5%) | ++ (5% ≤ ++ <25%) | ++ (5% ≤ ++ <25%) | ++ (5% ≤ ++ <25%) | ++ (5% ≤ ++ <25%) | + (LOQ ≤ + <5%) | ++ (5% ≤ ++ <25%) | +++ (25% ≤ +++ <50%) | ++ (5% ≤ ++ <25%) | ++ (5% ≤ ++ <25%)
6 | Fc1ccc2c(c1)CCO[C@H]2[C@@H]1CCCN1 [Compound I-9, (S)-2-((R)-6-fluoroisochroman-1-yl)pyrrolidine] | + (LOQ ≤ + <5%) | ++ (5% ≤ ++ <25%) | ++ (5% ≤ ++ <25%) | ++ (5% ≤ ++ <25%) | ++ (5% ≤ ++ <25%) | + (LOQ ≤ + <5%) | ++ (5% ≤ ++ <25%) | +++ (25% ≤ +++ <50%) | ++ (5% ≤ ++ <25%) | +++ (25% ≤ +++ <50%)
7 | Fc1cccc2c1[C@H]([C@@H]1CCN1)OCC2 [Compound I-83, (S)-2-((R)-8-fluoroisochroman-1-yl)azetidine] | ++ (5% ≤ ++ <25%) | ++ (5% ≤ ++ <25%) | ++ (5% ≤ ++ <25%) | +++ (25% ≤ +++ <50%) | ++ (5% ≤ ++ <25%) | + (LOQ ≤ + <5%) | ++ (5% ≤ ++ <25%) | +++ (25% ≤ +++ <50%) | + (LOQ ≤ + <5%) | + (LOQ ≤ + <5%)
8 | Fc1cccc2c1CCO[C@@H]2[C@H]1CCN1 [Compound I-96, (R)-2-((S)-5-fluoroisochroman-1-yl)azetidine] | + (LOQ ≤ + <5%) | +++ (25% ≤ +++ <50%) | ++ (5% ≤ ++ <25%) | ++ (5% ≤ ++ <25%) | +++ (25% ≤ +++ <50%) | + (LOQ ≤ + <5%) | ++ (5% ≤ ++ <25%) | +++ (25% ≤ +++ <50%) | + (LOQ ≤ + <5%) | + (LOQ ≤ + <5%)

Same assay, conditions: i.p. 15 min before behavioral test, most efficacious dose(s) of 3 doses

Row | SMILES | XG: anxiogenic (probability that behavioral signature matches class)
9 | Clc1ccc2c(c1)[C@H]([C@@H]1CCCN1)OCC2 [Compound I-29, (S)-2-((R)-7-chloroisochroman-1-yl)pyrrolidine] | + (LOQ ≤ + <5%)
10 | Fc1cccc2c1CCO[C@@H]2[C@@H]1CCN1 [Compound I-94, (S)-2-((S)-5-fluoroisochroman-1-yl)azetidine] | + (LOQ ≤ + <5%)
11 | Fc1ccc2c(c1)CCO[C@H]2[C@@H]1CCN1 [Compound I-90, (S)-2-((R)-6-fluoroisochroman-1-yl)azetidine] | + (LOQ ≤ + <5%)
12 | Fc1ccc2c(c1)[C@H]([C@@H]1CCCN1)OCC2 [Compound I-5, (2S)-2-((R)-7-fluoroisochroman-1-yl)pyrrolidine] | + (LOQ ≤ + <5%)
13 | Fc1cccc2c1[C@H]([C@@H]1CCCN1)OCC2 [Compound I-1, (S)-2-((R)-8-fluoroisochroman-1-yl)pyrrolidine] | + (LOQ ≤ + <5%)
14 | Fc1ccc2c(c1)CCO[C@H]2[C@@H]1CCCN1 [Compound I-9, (S)-2-((R)-6-fluoroisochroman-1-yl)pyrrolidine] | + (LOQ ≤ + <5%)
15 | Fc1cccc2c1[C@H]([C@@H]1CCN1)OCC2 [Compound I-83, (S)-2-((R)-8-fluoroisochroman-1-yl)azetidine] | + (LOQ ≤ + <5%)
16 | Fc1cccc2c1CCO[C@@H]2[C@H]1CCN1 [Compound I-96, (R)-2-((S)-5-fluoroisochroman-1-yl)azetidine] | + (LOQ ≤ + <5%)
